Measurements: US9351486B2, “Combinations of derivatized saccharide surfactants and etheramine oxide surfactants as herbicide adjuvants” (Monsanto Technology LLC, priority 2008, dated 2016)

Experiments:
Format in all cases: in vivo
[1] = tested on: VIOAR, Field violet (Viola arvensis Murr.); test: Greenhouse herbicidal efficacy on VIOAR
Experimental: (§1) Spray compositions of the Examples, containing an exogenous chemical, such as glyphosate potassium salt, in addition to the excipient ingredients listed, were evaluated for herbicidal efficacy according to the following method.
(§2) The amount of exogenous chemical was selected to provide the desired rate in grams per hectare (g/ha) when applied in a spray volume of 93 l/ha. Several exogenous chemical rates were applied for each composition. Thus, except where otherwise indicated, when spray compositions were tested, the concentration of exogenous chemical varied in direct proportion to exogenous chemical rate, but the concentration of excipient ingredients was held constant across different exogenous chemical rates.
(§3) Concentrate compositions were tested by dilution, dissolution or dispersion in water to form spray compositions. In these spray compositions prepared from concentrates, the concentration of excipient ingredients varied with that of exogenous chemical.
(§4) The herbicidal effectiveness data set forth herein report “inhibition” as a percentage following a standard procedure in the art which reflects a visual assessment of plant mortality and growth reduction by comparison with untreated plants, made by technicians specially trained to make and record such observations. In all cases, a single technician makes all assessments of percent inhibition within any one experiment or trial. Such measurements are relied upon and regularly reported by Monsanto Company in the course of its herbicide business.
(§5) The efficacy of potassium glyphosate formulations containing an APG surfactant and an EAO surfactant in an APG:EAO weight ratio of 4:1 and a glyphosate a.e. to total surfactant weight ratio of about 2.9:1 were evaluated in greenhouse trials. Also evaluated were potassium glyphosate compositions containing either an alkylpolyglucoside surfactant (designated as “Surfactant L” and “Surfactant N”) or an alkoxylated etheramine oxide surfactant (designated as “Surfactant G”) wherein the weight ratio of glyphosate a.e. to surfactant was about 2.9:1. Finally, the efficacy of potassium glyphosate not containing a surfactant (K-GLY) and comparative compositions 139R8H and 294T6K were also evaluated. The efficacy of each formulation, surfactant and comparative composition was evaluated at application rates of 100, 200 and 400 g glyphosate a.e. per hectare.
(§6) The efficacy of potassium glyphosate formulations containing various ratios of APG surfactants to EAO surfactants were evaluated in greenhouse trials as compared to comparative compositions 139R8H and 276U4D. The efficacy of each formulation, surfactant and comparative composition was evaluated at application rates of 200, 400 and 600 g glyphosate a.e. per hectare and the results are reported in Table ET4A wherein APG:EAO is the weight ratio of APG surfactant to EAO surfactant and Gly:Surf is the weight ratio of glyphosate a.e. to total surfactant.
The efficacy of potassium glyphosate formulations containing Atplus 452 and EAO surfactants were evaluated in greenhouse trials. The efficacy of each formulation, surfactant and comparative composition was evaluated at application rates of 100, 200, 300 and 400 g glyphosate a.e. per hectare and the results are reported in Table ET5A wherein APG:EAO is the weight ratio of APG surfactant to EAO surfactant and Gly:Surf is the weight ratio of glyphosate a.e. to total surfactant.

[2] = tested on: LOLMU, Italian ryegrass (Lolium multiflorum Lam.); test: Greenhouse herbicidal efficacy on LOLMU; details: for Application rate required for 85% control, LOLMU: calculated from rates 100, 200 and 400 g a.e./ha; for Average % control, LOLMU: average for 100, 200 and 400 g a.e./ha application rates
Experimental: as §1, §2, §3, §4, §5
(§7) The efficacy of potassium glyphosate formulations containing various APG surfactants and an EAO surfactant in an APG:EAO weight ratios and glyphosate a.e. to total surfactant weight ratios (Gly:Surf) as indicated in the tables below. Finally, the efficacy of comparative standard compositions 139R8H and 294T6K were also evaluated. The efficacy of each formulation, surfactant and comparative composition was evaluated at application rates of 100, 200 and 400 g glyphosate a.e. per hectare.

LOLMG, annual ryegrass = test: Greenhouse herbicidal efficacy on LOLMG
Experimental: as §1, §2, §3
(§8) The herbicidal effectiveness data set forth herein report “inhibition” as a percentage following a standard procedure in the art which reflects a visual assessment of plant mortality and growth reduction by comparison with untreated plants, made by technicians specially trained to make and record such observations. In all cases, a single technician makes all assessments of percent inhibition within any one experiment or trial. […]
(§9) The efficacy of formulations containing potassium glyphosate and an APG surfactant (formulation 179W2N) or an EAO surfactant (formulation 179R6U) in a weight percent ratio of glyphosate a.e. to surfactant of 4:1 was evaluated in greenhouse trials as compared to compositions 276U4D, 351L9P, 294T6K and K-GLY. The efficacy of each formulation, surfactant and comparative composition was evaluated at application rates of 100, 200 and 400 g glyphosate a.e. per hectare and the results are reported in Table ET8A wherein APG:EAO is the weight ratio of alkylpolyglucoside (APG) surfactant to alkoxylated amine oxide (EAO) surfactant and Gly:Surf is the weight ratio of glyphosate a.e. to total surfactant. […]

[3] = tested on: SINAR, wild mustard (Sinapis arvensis L.); test: Greenhouse herbicidal efficacy on SINAR
Experimental: as §1, §2, §3, §4, §5, §7, §6

MALSI, cheeseweed = test: Greenhouse herbicidal efficacy on MALSI; details: Example ET9; average for 100, 200 and 400 g a.e./ha application rates
Experimental: as §1
The amount of exogenous chemical was selected to provide the desired rate in grams per hectare (g/ha) when applied in a spray volume of 93 l/ha. Several exogenous chemical rates were applied for each composition. […]
as §6, with “surfactant. For each plant species, efficacy results are reported as the average % control for the three application rates (Table ET4a) and the calculated application rate (g a.e./ha) that must be applied to achieve 85% control (Table ET4b).” for “surfactant.”

[4] = tested on: ABUTH, velvetleaf (Abutilon theophrasti Medik.); test: Greenhouse herbicidal efficacy on ABUTH; details: for Average % control, ABUTH: average for 100, 200 and 400 g a.e./ha application rates
Experimental: as §1, §2, §3, §8, §9

[5] = tested on: CHEAL, common lambsquarters (Chenopodium album L.); test: Greenhouse herbicidal efficacy on CHEAL
Experimental: as §1, §2, §3, §4

[6] = Example ET1, calculated from rates 100, 200 and 400 g a.e./ha
[7] = Example ET1, greenhouse, average of the three application rates
[8] = Example ET3, average for 100, 200 and 400 g a.e./ha application rates
[9] = Example ET3, calculated from rates 100, 200 and 400 g a.e./ha
[10] = Example ET5, average for 100, 200, 300 and 400 g a.e./ha application rates
[11] = Example ET5, calculated from rates 100, 200, 300 and 400 g a.e./ha
[12] = Example ET6, average for 200, 400 and 600 g a.e./ha application rates
[13] = Example ET6, calculated from rates 200, 400 and 600 g a.e./ha
[14] = Example ET9, average for 100, 200 and 400 g a.e./ha application rates
[15] = Example ET2, calculated from rates 100, 200 and 400 g a.e./ha

## O=C(O)CNCP(=O)([O-])O.[K+] [K-GLY, potassium glyphosate]
[1]; [6]
  Application rate required for 85% control, VIOAR: >400.0 g a.e./ha
[1]; [7]
  Average % control for 100, 200 and 400 g a.e./ha application rates, VIOAR: 39.2%
[1]; [8]
  Average % control, VIOAR: 27.5%
[1]; [9]
  Application rate required for 85% control, VIOAR: >400.0 g a.e./ha
[1]; [10]
  Average % control, VIOAR: 34.7%
[1]; [11]
  Application rate required for 85% control, VIOAR: >400.0 g a.e./ha
[1]; [12]
  VIOAR (ave. cntrl): 31.7%
[1]; [13]
  VIOAR (g a.e./ha for 85% control): >600.0 g a.e./ha
[1]; [14]
  Average % control, VIOAR: 36.7%
[2]; Example ET1
  Application rate required for 85% control, LOLMU: >400.0 g a.e./ha
[2]; [7]
  Average % control for 100, 200 and 400 g a.e./ha application rates, LOLMU: 40.8%
[2]; Example ET2
  Average % control, LOLMU: 58.1%
  Application rate required for 85% control, LOLMU: >400.0 g a.e./ha
[2]; Example ET3
  Average % control, LOLMU: 27.9%
  Application rate required for 85% control, LOLMU: >400.0 g a.e./ha
[2]; Example ET7, 23 DAT, average for 50, 100 and 300 g a.e./ha application rates
  LOLMU 23 DAT (ave. control): 48.3%
[2]; Example ET7, 23 DAT, calculated from rates 50, 100 and 300 g a.e./ha
  LOLMU 23 DAT (g a.e./ha for 85% control): >300.0 g a.e./ha
LOLMG, annual ryegrass; [10]
  Average % control, LOLMG: 42.5%
LOLMG, annual ryegrass; [11]
  Application rate required for 85% control, LOLMG: >400.0 g a.e./ha
LOLMG, annual ryegrass; [14]
  Average % control, LOLMG: 37.8%
[3]; [6]
  Application rate required for 85% control, SINAR: >400.0 g a.e./ha
[3]; [7]
  Average % control for 100, 200 and 400 g a.e./ha application rates, SINAR: 67.5%
[3]; Example ET2, average for 100, 200 and 400 g a.e./ha application rates
  Average % control, SINAR: 64.1%
[3]; [15]
  Application rate required for 85% control, SINAR: >400.0 g a.e./ha
[3]; [10]
  Average % control, SINAR: 72.5%
[3]; [11]
  Application rate required for 85% control, SINAR: 366.7 g a.e./ha
[3]; Example ET7, 10 DAT, average for 50, 100 and 300 g a.e./ha application rates
  SINAR 10 DAT (ave. Ctrl): 74.6%
[3]; Example ET7, 10 DAT, calculated from rates 50, 100 and 300 g a.e./ha
  SINAR 10 DAT (g a.e./ha for 85% control): 227.3 g a.e./ha
MALSI, cheeseweed
  Average % control, MALSI: 22.8%
[4]; Example ET2
  Average % control, ABUTH: 40.0%
[4]; [15]
  Application rate required for 85% control, ABUTH: 400.0 g a.e./ha
[4]; Example ET9
  Average % control, ABUTH: 27.2%
[5]; [8]
  Average % control, CHEAL: 5.0%
[5]; [9]
  Application rate required for 85% control, CHEAL: >400.0 g a.e./ha
[5]; [12]
  CHEAL (ave. cntrl): 33.3%
[5]; [13]
  CHEAL (g a.e./ha for 85% control): >600.0 g a.e./ha
